The term CC50 denotes the concentration that lowers cell viability or growth by half. The EC50 is the concentration at which the effect is half-maximal.

Data set [1] in a line: cellular cytotoxicity assay. Type of data set: cell-based. Particulars: human, HOS human osteosarcoma cells.
The test system of data set [2] is lentiviral vector harboring WT IN. The data set is described as follows: microbe, parasite or virus in culture. In kind it is cell-based, HIV-1. To be noted: for antiviral potency against WT vector with increasing FBS: 5%, 10% and 15% FBS, relative to values at 5% FBS, data not shown.
For data set [3], the system named is HIV-1 construct carrying IN mutation G118R. The data set is described as follows: single-round HIV-1 infectivity assay, G118R IN mutant. Type of data set: cell-based. Particulars: Human immunodeficiency virus 1, read-out: EC50 G118R IN mutant.
The subject of data set [4] is HIV-1 construct carrying IN mutation R263 K. As to the kind of experiment: single-round HIV-1 infectivity assay, R263 K IN mutant. Type of data set: cell-based. Particulars: Human immunodeficiency virus 1, read-out: EC50 R263 K IN mutant.

In the case of `COC(=O)[C@H](C)Nc1c(C(=O)NCc2ccc(F)cc2F)c(=O)n(O)c2ncccc12` [(S)-5r, Methyl (S)-2-((3-((2,4-Difluorobenzyl)carbamoyl)-1-hydroxy-2-oxo-1,2-dihydro-1,8-naphthyridin-4-yl)amino)propanoate], the cytotoxic concentration (CC50) in data set [1] is > 250000 nM.
For `COC(=O)CNc1c(C(=O)NCc2ccc(F)cc2F)c(=O)n(O)c2ncccc12` [5q, Methyl 2-((3-((2,4-Difluorobenzyl)carbamoyl)-1-hydroxy-2-oxo-1,2-dihydro-1,8-naphthyridin-4-yl)amino)acetate], the “antiviral potency against WT vector with increasing FBS” value in data set [2] is recorded as “essentially unchanged”.
With `Cc1nnc(C(=O)NC(C)(C)c2nc(C(=O)NCc3ccc(F)cc3)c(O)c(=O)n2C)o1` [compound 1, raltegravir], the EC50 in data set [3] was found to be 36 ± 5 nM; in data set [2] (Human immunodeficiency virus 1, read-out: EC50 (WT)), 4 ± 2 nM; in data set [4], 9 ± 4 nM.
Take `CC(=O)OCCNc1c(C(=O)NCc2ccc(F)cc2F)c(=O)n(O)c2ncccc12` [5p, 2-((3-((2,4-Difluorobenzyl)carbamoyl)-1-hydroxy-2-oxo-1,2-dihydro-1,8-naphthyridin-4-yl)amino)ethyl Acetate]: the “antiviral potency against WT vector with increasing FBS” value in data set [2] is given as “essentially unchanged”.
Turning to `COC(=O)[C@H](Nc1c(C(=O)NCc2ccc(F)cc2F)c(=O)n(O)c2ncccc12)c1ccccc1` [(R)-5s, Methyl (R)-2-((3-((2,4-Difluorobenzyl)carbamoyl)-1-hydroxy-2-oxo-1,2-dihydro-1,8-naphthyridin-4-yl)amino)-2-phenylacetate], the half-maximal cytotoxic concentration (CC50) in data set [1] was > 250000 nM.
The same measure, in the same setting: to `COC(=O)[C@@H](CO)Nc1c(C(=O)NCc2ccc(F)cc2F)c(=O)n(O)c2ncccc12` [(R)-5t, Methyl (R)-2-((3-((2,4-Difluorobenzyl)carbamoyl)-1-hydroxy-2-oxo-1,2-dihydro-1,8-naphthyridin-4-yl)amino)-3-hydroxypropanoate] belongs > 250000 nM.
As to `Nc1c(C(=O)NCc2ccc(F)cc2F)c(=O)n(O)c2ncccc12` [5v, 4-Amino-N-(2,4-difluorobenzyl)-1-hydroxy-2-oxo-1,2-dihydro-1,8-naphthyridine-3-carboxamide], the “antiviral potency against WT vector with increasing FBS” value in data set [2] is reported as “essentially unchanged”.

The values above are taken from article PMC4216207 (Journal of Medicinal Chemistry, 2014).
